2 molecules from PMC9658223, “New, Eco-Friendly Method for Synthesis of 3-Chlorophenyl and 1,1′-Biphenyl Piperazinylhexyl Trazodone Analogues with Dual 5-HT1A/5-HT7 Affinity and Its Antidepressant-like Activity” (Molecules, 2022) can be followed below.

Structures can show the parent of a compound that is named as a salt.

One series addresses T1, 5-HT7 receptor (Homo sapiens, UniProt P34969).
T1 construct: gene HTR7; 5-HT7bR
Kind of series: LANCE Ultra cAMP assay, inhibition of 5-CT-induced cAMP in HEK-293 cells overexpressing 5-HT7bR. Type of series: cell-based. From the text:
LANCE Ultra cAMP assay, inhibition of 5-CT-induced cAMP in HEK-293 cells overexpressing 5-HT7bR on 5-HT7 receptor | Both behaved as 5-HT7R antagonists | Both behaved as 5-HT7R antagonists, while 7b·HCl additionally acted as a 5-HT1AR antagonist in a cAMP assay.
A general note: In TR-FRET formats the signal depends on donor and acceptor labels being close together.

The target in a further series is CYP3A4 (Homo sapiens, UniProt P08684). Kind of series: CYP3A4 P450-Glo luminescence assay (Promega), single concentration […]. It is filed as biochemical.
In another series the target is T2, 5-HT1A receptor (Homo sapiens, UniProt P08908).
T2 construct: gene HTR1A
T2 sequence (P08908 1-422): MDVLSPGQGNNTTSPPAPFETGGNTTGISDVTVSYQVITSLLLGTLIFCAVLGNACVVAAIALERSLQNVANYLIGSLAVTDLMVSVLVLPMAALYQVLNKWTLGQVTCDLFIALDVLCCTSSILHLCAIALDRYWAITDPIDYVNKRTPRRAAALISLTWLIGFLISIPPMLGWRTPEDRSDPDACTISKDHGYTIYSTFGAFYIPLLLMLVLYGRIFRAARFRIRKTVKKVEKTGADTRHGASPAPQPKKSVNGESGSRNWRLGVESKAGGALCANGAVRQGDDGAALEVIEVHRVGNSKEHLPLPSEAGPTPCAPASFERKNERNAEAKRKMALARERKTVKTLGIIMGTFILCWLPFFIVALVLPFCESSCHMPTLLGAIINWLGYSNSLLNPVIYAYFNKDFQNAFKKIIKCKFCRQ
Kind of series: LANCE Ultra cAMP functional antagonist assay in HEK293 cells. It is filed as cell-based. From the text: LANCE Ultra cAMP functional antagonist assay in HEK293 cells on 5-HT1A receptor | 7b·HCl additionally acted as a 5-HT1AR antagonist in a cAMP assay

T1 sequence (P34969 1-432): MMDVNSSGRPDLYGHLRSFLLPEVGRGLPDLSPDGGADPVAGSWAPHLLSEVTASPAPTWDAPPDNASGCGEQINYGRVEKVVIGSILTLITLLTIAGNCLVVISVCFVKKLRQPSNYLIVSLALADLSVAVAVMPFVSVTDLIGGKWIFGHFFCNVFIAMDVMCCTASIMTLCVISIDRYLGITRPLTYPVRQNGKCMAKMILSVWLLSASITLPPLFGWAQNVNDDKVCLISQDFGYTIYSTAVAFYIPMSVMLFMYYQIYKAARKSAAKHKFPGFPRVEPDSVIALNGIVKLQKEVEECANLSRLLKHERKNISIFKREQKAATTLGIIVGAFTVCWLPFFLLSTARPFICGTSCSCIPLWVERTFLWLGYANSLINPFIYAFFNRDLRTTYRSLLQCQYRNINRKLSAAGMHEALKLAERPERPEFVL
Sequence of CYP3A4 (P08684 2-503): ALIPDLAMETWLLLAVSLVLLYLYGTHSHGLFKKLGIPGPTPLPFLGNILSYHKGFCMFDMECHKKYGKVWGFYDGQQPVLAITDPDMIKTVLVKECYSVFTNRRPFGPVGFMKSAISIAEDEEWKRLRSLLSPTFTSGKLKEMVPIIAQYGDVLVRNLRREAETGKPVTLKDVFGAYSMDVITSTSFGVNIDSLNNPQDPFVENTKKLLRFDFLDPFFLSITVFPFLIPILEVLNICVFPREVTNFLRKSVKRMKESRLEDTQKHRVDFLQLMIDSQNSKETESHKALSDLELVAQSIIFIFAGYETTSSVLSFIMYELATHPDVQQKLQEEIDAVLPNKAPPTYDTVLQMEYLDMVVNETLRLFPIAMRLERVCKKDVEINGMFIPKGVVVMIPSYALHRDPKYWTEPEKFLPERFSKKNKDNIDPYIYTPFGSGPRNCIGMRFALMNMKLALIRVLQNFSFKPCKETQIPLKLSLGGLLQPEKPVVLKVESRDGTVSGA

For the molecule `O=c1n(CCCCCCN2CCN(c3cccc(Cl)c3)CC2)nc2ccccn12` [7a·HCl, 2-(6-(4-(3-chlorophenyl)piperazin-1-yl)hexyl)-[1,2,4]triazolo[4,3-a]pyridin-3(2H)-one hydrochloride], the Kb on 5-HT7 receptor worked out at 87 nM.

For `O=c1n(CCCCCCN2CCN(c3ccccc3-c3ccccc3)CC2)nc2ccccn12` [7b·HCl, 2-(6-(4-([1,1′-biphenyl]-2-yl)piperazin-1-yl)hexyl)-[1,2,4]triazolo[4,3-a]pyridin-3(2H)-one hydrochloride], on CYP3A4, the inhibition at 10 µM came to 35%. In addition, the Kb is 18 nM on 5-HT7 receptor and 12 nM on 5-HT1A receptor.

By inhibition is commonly meant the drop in the measured response relative to a control, in per cent. Low values mean a response near the control, high ones a response far below the control.
